# Measured values from patent publication US4582821A, “Inhibition of cyclic nucleotide independent protein kinases” (E. I. Du Pont de Nemours and Company, priority 1983, dated 1986).
# Tests used:
# hexokinase = conditions: Johnson et al., Biochemistry 21:2984 (1982); cited from earlier work
# protein kinase = conditions: Johnson et al., Biochemistry 21:2984 (1982); cited from earlier work
# ASV-transformed cells = conditions: Weber, Cell 5:253 (1975); cited from earlier work
# pp60^src = conditions: Richert et al., Cell 18:369 (1979); cited from earlier work
# p130^fps = biological target: T1, p130^fps (UniProt P00530+P03323); test: Immune complex phosphorylation by p130fps immunoprecipitates of FSV-transformed cells; assay type: biochemical, Fujinami sarcoma virus (FSV); conditions: for Activity (cpm), FSV: anti-gag immunoprecipitates, no inhibitor 27036; for Activity (cpm), Control: extracts immunoprecipitated with normal serum, no inhibitor 2624
# T1 construct: anti-gag serum and Staphylococcus protein A suspension (for FSV-transformed cells); viral gag-derived N-terminal portion (natural gag-fps fusion); expressed in transfected cells; immune complex with anti-gag serum and Staphylococcus protein A
# Experimental: In this experiment, Boc-LeuCH2 Br was tested as an inhibitor of pp60^src and p130^fps, the tyrosine-specific protein kinases encoded by the transforming genes of RSV and Fujinami sarcoma virus, respectively.
# These viral gene products were partially purified by preparation of immune complexes substantially according to the technique described by Collett et al., Proc. Nat. Acad. Sci. USA 75:2021 (1978). In this procedure, immunoprecipitates are prepared by incubation of extracts of virus-transformed cells with tumor-bearing rabbit serum (TBR) and Staphylococcus protein A suspension (for RSV-transformed cells) or anti-gag serum and Staphylococcus protein A suspension (for FSV-transformed cells).
# Assay mixtures contained, in a final volume of 70 μL, 100 μg of immune complex protein, 20 mM Hepes, pH 7.4, and 1 mM MnCl2. Phosphorylation was initiated by addition of 1 μM (4 μCi) [γ-^32 P] ATP. After 10 minutes at about 23°, reactions were terminated by pipetting 20 μL aliquots of assay mixture onto 2×2 cm squares of Whatman 3 MM filter paper, which were immediately suspended in 10% TCA/10 mM sodium pyrophosphate. […] Controls for the immunoprecipitation procedure were prepared by immunoprecipitating transformed cell extracts with normal serum. Values in parentheses represent specific phosphorylation induced by virus-transformed cells.
# In a related experiment, the capacity of Boc-LeuCH2 Br to inhibit phosphorylation of casein by p130^fps was determined. These tests were conducted substantially as described above, except 1 mg/mL casein was added to assay mixtures as a substrate, and reactions were terminated by addition of 2.5 mM unlabeled ATP and immediate cooling to 0°. Phosphorylated casein was separated from immunoprecipitate suspensions by centrifugation at 3,000 xg for 3 minutes. The resulting pellets were resuspended in 70 μL of 10 mM Hepes, pH 7.5, and 20 μL aliquots were pipetted onto filter paper squares as previously described.
# This experiment was conducted substantially according to the procedures described in Example 17, above. In Table 5, "FSV" refers to immunoprecipitates of FSV-transformed cell extracts prepared by addition of anti-gag serum; controls were extracts immunoprecipitated with normal serum.
# A-431 cell EGF receptor = biological target: T2, A-431 cell EGF receptor (Homo sapiens, UniProt P00533); test: Protein phosphorylation of A-431 cell membrane EGF receptors (intact membranes, EGF present); assay type: biochemical; conditions: 600 nmoles/mg protein, intact A-431 membranes
# T2 construct: intact A-431 cell membranes were employed, rather than solubilized extracts; endogenous in cells; host or cells: A-431 human epidermoid carcinoma cells (plasma membranes)
# T2 sequence (P00533 25-1210): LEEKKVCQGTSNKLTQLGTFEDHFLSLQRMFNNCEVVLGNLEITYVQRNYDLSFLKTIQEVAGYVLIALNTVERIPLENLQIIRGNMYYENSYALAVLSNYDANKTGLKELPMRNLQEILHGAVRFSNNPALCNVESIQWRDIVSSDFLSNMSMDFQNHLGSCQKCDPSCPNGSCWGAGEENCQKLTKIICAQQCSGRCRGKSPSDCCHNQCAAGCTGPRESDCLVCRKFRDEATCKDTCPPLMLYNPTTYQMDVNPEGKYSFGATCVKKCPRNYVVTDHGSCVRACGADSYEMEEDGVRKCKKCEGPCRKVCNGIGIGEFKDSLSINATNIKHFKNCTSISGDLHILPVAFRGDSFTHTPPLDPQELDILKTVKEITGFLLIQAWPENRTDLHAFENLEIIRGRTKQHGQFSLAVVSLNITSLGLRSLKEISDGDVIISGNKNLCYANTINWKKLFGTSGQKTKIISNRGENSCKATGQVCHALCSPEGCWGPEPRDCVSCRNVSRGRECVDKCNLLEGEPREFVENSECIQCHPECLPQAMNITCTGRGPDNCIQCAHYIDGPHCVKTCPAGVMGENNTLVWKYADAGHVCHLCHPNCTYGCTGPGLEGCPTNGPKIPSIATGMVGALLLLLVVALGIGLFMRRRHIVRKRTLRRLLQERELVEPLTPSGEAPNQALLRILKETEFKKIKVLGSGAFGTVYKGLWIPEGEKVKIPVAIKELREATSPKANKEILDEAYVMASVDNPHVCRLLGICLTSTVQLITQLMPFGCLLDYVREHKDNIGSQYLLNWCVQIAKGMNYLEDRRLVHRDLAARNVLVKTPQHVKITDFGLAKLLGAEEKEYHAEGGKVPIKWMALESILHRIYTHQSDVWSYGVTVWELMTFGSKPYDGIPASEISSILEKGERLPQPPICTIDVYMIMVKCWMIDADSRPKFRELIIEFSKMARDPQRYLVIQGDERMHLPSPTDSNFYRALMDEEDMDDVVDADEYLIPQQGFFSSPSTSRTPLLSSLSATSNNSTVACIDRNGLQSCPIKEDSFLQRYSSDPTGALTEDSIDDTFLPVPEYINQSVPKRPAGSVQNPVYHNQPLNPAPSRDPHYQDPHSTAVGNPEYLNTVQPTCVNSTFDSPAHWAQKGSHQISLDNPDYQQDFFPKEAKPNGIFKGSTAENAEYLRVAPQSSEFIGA
# Experimental: (§1) Protein phosphorylation assays were conducted substantially as described by Carpenter et al., J. Biol. Chem. 254:4884 (1979). Each assay mixture contained, in a final volume of 70 μL: 20 mM Hepes, pH 7.4, 0.01% bovine serum albumin (BSA), 15-150 μg protein in Triton extract, 100 ng EGF, 1 mM MnCl2 and 10-20 μM [γ-^32 P] ATP (2-4 μCi). Peptide halomethyl ketones were added as solutions in ethanol; an equivalent volume of ethanol was added to controls. Assay mixtures were incubated at about 23° for ten minutes, with or without added EGF. Mixtures were then held at 0° for ten minutes before initiation of phosphorylation by addition of 15 μM γ-^32 P) ATP (2 μCi). Reactions were terminated after 3 minutes at 0° by applying an aliquot of the assay mixture to a Whatman 3MM filter paper (2×2 cm), which was then suspended in ice-cold 10% trichloroacetic acid containing 10 mM pyrophosphate. This suspension was gently shaken for a period of 1 hour, during which the trichloroacetic acid/pyrophosphate mixture was changed three times. Finally, the filter papers were dried and radioactivity measured by scintillation counting.
# Assays were conducted substantially as described above, except intact A-431 cell membranes were employed, rather than solubilized extracts, and assay mixtures contained 1 mM ouabain. In these Examples, reactions were permitted to proceed for 6 minutes. This technique is substantially similar to that disclosed by Navarro et al., Biochemistry, 21:6138 (1982).
# [1] = test system: A-431 plasma membrane extracts (EGF-mediated protein phosphorylation); test: Protein phosphorylation in solubilized A-431 plasma membrane extracts, with or without EGF; assay type: biochemical, human; conditions: 477 nmol/mg protein
# Experimental: The capacity of certain peptide halomethyl ketones to inhibit protein phosphorylation is illustrated by Examples 1-8, below, in which solubilized plasma membranes prepared from A-431 human epidermoid carcinoma cells were incubated with [γ-^32 P] ATP in the presence of EGF.
# A-431 human epidermoid carcinoma cells were grown in Dulbecco's modified Eagle's medium containing 5% fetal calf serum. Plasma membranes were isolated by a method substantially similar to that described by Thom et al., Biochem J. 168:187 (1977), and kept at -70°. Solubilization of plasma membranes was performed substantially as described by Cohen et al., J. Biol. Chem. 255:4834 (1980). In this procedure, 7.5 mg/mL protein was solubilized with 5% Triton X-100 (octylphenol), 10% glycerol, and 20 mM Hepes buffer (N-2-hydroxyethylpiperazine-N^1 -2-ethanesulfonic acid), pH 7.4. This mixture was incubated for 20 minutes at about 23°, followed by centrifugation at 100,000 xg for 60 minutes.
# as §1
structure (smiles),measurement,setting,value
CC(C)COC(=O)OC(C)C(=O)CCl (stereo not drawn) [2-isobutyl 3-oxo-4-chloro-2-butyl carbonate],hexokinase activity of Ehrlich ascites tumor cells (in words),hexokinase,inhibition
same,protein kinase activity of Ehrlich ascites tumor cells (in words),protein kinase,inhibition
"Cc1ccc(S(=O)(=O)N[C@@H](CCCCN)C(=O)CCl)cc1 [TLCK, N-α-tosyl-L-lysyl chloromethyl ketone]",phenotype of ASV-transformed cells upon treatment (in words),ASV-transformed cells,phenotypic reversion of ASV-transformed cells to normal
same,in vivo protein phosphorylation activity associated with pp60src (in words),pp60^src,observed to inhibit
CC(C)(C)OC(=O)N[C@@H](Cc1ccc(O)cc1)C(=O)CBr [Boc-TyrCH2 Br],% inhibition,p130^fps; 250 nmoles/mg protein,84%
same,"Activity (cpm), FSV",p130^fps; 250 nmoles/mg protein,4204 cpm
same,"Activity (cpm), Control",p130^fps; 250 nmoles/mg protein,2132 cpm
same,% inhibition,p130^fps; 500 nmoles/mg protein,87%
same,"Activity (cpm), FSV",p130^fps; 500 nmoles/mg protein,3404 cpm
same,"Activity (cpm), Control",p130^fps; 500 nmoles/mg protein,2140 cpm
same,% inhibition,A-431 cell EGF receptor,49%
same,"% inhibition, EGF Added",[1]; EGF added,78%
same,EGF Added (pmol 32P incorporated/min/mg protein),"[1]; EGF added, control 96.2",20.6 pmol^32 P incorporated/min/mg
same,"% inhibition, No EGF Added",[1]; no EGF,83%
same,No EGF Added (pmol 32P incorporated/min/mg protein),"[1]; no EGF, control 21.6",3.6 pmol^32 P incorporated/min/mg
